Source: patent US20260098030A1, “NEGATIVE ALLOSTERIC MODULATORS OF METABOTROPIC GLUTAMATE RECEPTOR 2” (Vanderbilt University, priority 2022, published 2026)
pIC50: −log10 of the molar value.

biological target: T1, human mGlu2 (Homo sapiens, UniProt Q14416); assay: mGlu GIRK cell-based thallium flux assay, human mGlu2; conditions: HEK-293 cells co-expressing human mGlu2 and GIRK, EC80 glutamate
T1 construct: expressed in transfected cells; host or cells: HEK-293 cells stably co-expressing GIRK channels
Method: Human embryonic kidney (HEK-293) cell lines stably co-expressing human or rat mGlu2 and G protein-coupled inwardly rectifying potassium (GIRK) channels, or human mGlu3 and GIRK, were used for in vitro evaluation of compound activity in thallium flux assay using a fluorescent thallium indicator dye.
The day before the assay, GIRK cells co-expressing human mGlu3, human or rat mGlu2, as described above, were plated in black-walled, clear-bottomed, amine-coated 384-well plates at a density of 15,000 cells/20 μL/well in the assay medium (glutamine-depleted basal DMEM supplemented with 10% dialyzed FBS, 20 mM HEPES, 1 mM sodium pyruvate). Cells were incubated at 37° C. in the presence of 5% CO2. The next day, assay buffer (Hanks balanced salt solution, 20 mM HEPES, 4.16 mM sodium bicarbonate, pH 7.2) was prepared to dilute compounds and Thallos AM fluorescent dye solution. The 2× Thallos dye solution (final concentration 0.34 μM to the cells) was prepared by mixing the dye stock (2.97 mM in DMSO) to 1:1 with 10% pluronic acid before adding to the assay buffer. Cells were washed with assay buffer using a microplate washer to remove the medium, resulting in 20 μL of buffer remaining in each well. Immediately, 20 μL of 2× Thallos dye solution was added to cells, and incubated for one hour at 25° C. During the cell dye loading incubation period, a 10-point concentration serial dilution of compound was created from a 10 mM DMSO compound stock by performing a 1:3 serial dilution in DMSO using the Bravo liquid handler. The 2× compound plate was generated by transferring 0.24 μL of the diluted compound in each well to a daughter plate using an Echo acoustic liquid handler. This is further diluted in 40 μL assay buffer, resulting in a range from 30 μM to 1.5 nM final concentration in the assay. The agonist plate (5×) was prepared to include EC80 glutamate concentration (a concentration to elicit 80% of a maximally effective glutamate concentration) in thallium buffer (125 mM […], 1 mM magnesium sulfate, 1.8 mM calcium sulfate, 5 mM glucose, 10 mM HEPES, pH 7.2, 12.5 mM thallium sulfate).
After dye-loading, cell plates were washed with assay buffer to remove excess extracellular dye using a microplate washer, resulting in 20 μL of buffer remaining in each well. After a ten-minute equilibration period, cell, compound and agonist plates were loaded into a Hamamatsu μCell kinetic imaging plate reader equipped with liquid handler to monitor fluorescence changes at 480 nm excitation and 540 nm emission settings. Briefly, after collection of baseline fluorescence, 20 μL of compound was added and incubated for two minutes and twenty seconds. This is immediately followed by adding 10 μL of glutamate-thallium buffer to the wells containing compound. The fluorescent signal was monitored an additional 2.5 minutes after the glutamate addition. Multiple reference wells containing no compound received either no glutamate (for a baseline reference), EC80 glutamate, or ECmax glutamate (for normalization to maximum response). Fluorescence was measured throughout the experiment at a frequency of 1 measurement per every 2 seconds before the glutamate addition and a frequency of 1 measurement per every 1 second after the glutamate addition. Each compound concentration series occurred one time in each plate, and replicates from two or three plates were used in each experimental run. Thallium solutions were handled and disposed of according to guidelines from the Vanderbilt University Chemical Safety department.
Data were normalized using a static ratio function (F/F0) by dividing every fluorescent measurement by the initial fluorescent value for the corresponding well. The increase in signal resulting from the glutamate/thallium addition of the second add was measured by determining the slope from 3 seconds to 13 seconds after the addition. […]

T1 sequence (Q14416 19-872): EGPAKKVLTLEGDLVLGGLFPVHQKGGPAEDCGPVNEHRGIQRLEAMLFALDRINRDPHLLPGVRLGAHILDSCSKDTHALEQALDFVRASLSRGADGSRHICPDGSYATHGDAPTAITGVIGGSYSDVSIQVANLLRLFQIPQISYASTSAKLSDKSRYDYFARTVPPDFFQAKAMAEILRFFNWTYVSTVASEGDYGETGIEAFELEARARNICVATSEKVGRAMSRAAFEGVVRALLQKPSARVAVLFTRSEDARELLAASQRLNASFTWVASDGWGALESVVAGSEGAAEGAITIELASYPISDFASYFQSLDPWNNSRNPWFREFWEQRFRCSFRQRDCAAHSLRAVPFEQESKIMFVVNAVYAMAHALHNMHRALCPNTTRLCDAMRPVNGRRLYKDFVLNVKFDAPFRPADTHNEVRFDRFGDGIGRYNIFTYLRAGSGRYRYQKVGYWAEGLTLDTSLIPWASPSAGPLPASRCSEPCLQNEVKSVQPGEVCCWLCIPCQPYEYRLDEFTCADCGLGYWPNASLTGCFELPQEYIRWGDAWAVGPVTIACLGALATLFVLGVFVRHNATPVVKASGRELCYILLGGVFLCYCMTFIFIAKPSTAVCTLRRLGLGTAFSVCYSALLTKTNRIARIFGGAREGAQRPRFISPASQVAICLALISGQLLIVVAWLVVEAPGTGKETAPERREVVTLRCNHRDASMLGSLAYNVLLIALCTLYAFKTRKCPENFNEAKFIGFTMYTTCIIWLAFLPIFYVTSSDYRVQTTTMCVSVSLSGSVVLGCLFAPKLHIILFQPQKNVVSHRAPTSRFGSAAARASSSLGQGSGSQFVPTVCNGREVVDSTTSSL

Row | SMILES | pIC50
1 | Cn1ncc(-c2cc3c(cc2-c2ccc(F)cc2F)C(=O)NC3)c1C#N [Compound 115, 4-(6-(2,4-difluorophenyl)-1-oxoisoindolin-5-yl)-1-methyl-1H-pyrazole-5-carbonitrile] | 6.63
2 | N#Cc1cccc(-c2cc3c(cc2-c2c(F)cc(F)cc2F)C(=O)NC3)c1 [Compound 160, 3-(1-oxo-6-(2,4,6-trifluorophenyl)isoindolin-5-yl)benzonitrile] | 6.66
3 | O=C1NCc2cc(-c3cccc4c3CNC4=O)c(-c3ccc(F)cc3F)cc21 [Compound 136, 6′-(2,4-difluorophenyl)-[4,5′-biisoindoline]-1,1′-dione] | 5.50
4 | CC(C)n1cc(-c2cc3c(cc2-c2ccc(F)cc2F)C(=O)NC3)cn1 [Compound 133, 6-(2,4-difluorophenyl)-5-(1-isopropyl-1H-pyrazol-4-yl)isoindolin-1-one] | 5.74
5 | CS(=O)(=O)n1cc(-c2cc3c(cc2-c2ccc(F)cc2F)C(=O)NC3)cn1 [Compound 127, 6-(2,4-difluorophenyl)-5-(1-(methylsulfonyl)-1H-pyrazol-4-yl)isoindolin-1-one] | 5.10
6 | O=C1NCc2cc(-c3cnc(Cl)n3C3CCCCO3)c(-c3ccc(F)cc3F)cc21 (stereo not shown) [Compound 148, 5-(2-chloro-1-(tetrahydro-2H-pyran-2-yl)-1H-imidazol-5-yl)-6-(2,4-difluorophenyl)isoindolin-1-one] | 6.34
7 | CS(=O)(=O)c1ccccc1-c1cc2c(cc1-c1ccc(F)cc1F)C(=O)NC2 [Compound 128, 6-(2,4-difluorophenyl)-5-(2-(methylsulfonyl)phenyl)isoindolin-1-one] | 5.47
8 | O=C1NCc2cc(-c3cccc4c3OCC4)c(-c3ccc(F)cc3F)cc21 [Compound 149, 6-(2,4-difluorophenyl)-5-(2,3-dihydrobenzofuran-7-yl)isoindolin-1-one] | 6.27
9 | CC(=O)Nc1ccccc1-c1cc2c(cc1-c1ccc(F)cc1F)C(=O)NC2 [Compound 120, N-(2-(6-(2,4-difluorophenyl)-1-oxoisoindolin-5-yl)phenyl)acetamide] | 5.98
10 | CCn1cc(-c2cc3c(cc2-c2ccc(F)cc2F)C(=O)NC3)c(C(F)(F)F)n1 [Compound 129, 6-(2,4-difluorophcnyl)-5-(1-cthyl-3-(trifluoromethyl)-1H-pyrazol-4-yl)isoindolin-1-one] | 6.12
11 | O=C1NCc2cc(-c3cnn(C4COC4)c3)c(-c3ccc(F)cc3)cc21 [Compound 3, 6-(4-fluorophenyl)-5-(1-(oxctan-3-yl)-1H-pyrazol-4-yl)isoindolin-1-one] | < 5.00
12 | O=C1NCc2cc(-c3cnn(CCN4CCOCC4)c3)c(-c3ccc(F)cc3F)cc21 [Compound 154, 6-(2,4-difluorophenyl)-5-(1-(2-morpholinoethyl)-1H-pyrazol-4-yl)isoindolin-1-one] | < 5.00
13 | Cc1ccc(-c2cc3c(cc2-c2cccc(C#N)c2)CNC3=O)c(F)c1 [Compound 142, 3-(6-(2-fluoro-4-methylphenyl)-1-oxoisoindolin-5-yl)benzonitrile] | 5.88
14 | N#Cc1ccccc1-c1cc2c(cc1-c1ccc(F)cc1F)C(=O)NC2 [Compound 124, 2-(6-(2,4-difluorophenyl)-1-oxoisoindolin-5-yl)benzonitrile] | 6.30

More lines, now with the values ahead:

Row | pIC50 | SMILES
15 | 6.69 | [2H]C1([2H])NC(=O)c2cc(-c3ccc(F)cc3F)c(C([2H])([2H])C([2H])([2H])c3ccn(C)n3)cc21 [Compound A5, 6-(2,4-difluorophenyl)-5-(2-(1-methyl-1H-pyrazol-3-yl)ethyl-1,1,2,2-d4)isoindolin-1-one-3,3-d2]
16 | 6.05 | N#Cc1cccc(-c2cc3c(cc2-c2ccc(OC(F)F)cc2F)C(=O)NC3)c1 [Compound 162, 3-(6-(4-(difluoromethoxy)-2-fluorophenyl)-1-oxoisoindolin-5-yl)benzonitrile]
17 | 6.72 | Cn1ccc(CCc2cc3c(cc2-c2ccc(F)cc2F)C(=O)NC3)n1 [Compound A1, 6-(2,4-difluorophenyl)-5-(2-(1-methyl-1H-pyrazol-3-yl)ethyl)isoindolin-1-one]
18 | < 5.00 | COc1ccc(-c2cc3c(cc2-c2cccc(C#N)c2)CNC3=O)c(C)c1 [Compound 175, 3-(6-(4-methoxy-2-methylphenyl)-1-oxoisoindolin-5-yl)benzonitrile]
19 | < 5.00 | COc1cc(F)c(-c2cc3c(cc2-c2cccc(C#N)c2)CNC3=O)cc1F [Compound 174, 3-(6-(2,5-difluoro-4-methoxyphenyl)-1-oxoisoindolin-5-yl)benzonitrile]
20 | < 5.00 | N#Cc1cccc(-c2cc3c(cc2-c2cc(F)ccc2F)C(=O)NC3)c1 [Compound 185, 3-(6-(2,5-difluorophenyl)-1-oxoisoindolin-5-yl)benzonitrile]
21 | 6.68 | Cn1nccc1CCc1cc2c(cc1-c1ccc(F)cc1F)C(=O)NC2 [Compound A7, 6-(2,4-difluorophenyl)-5-(2-(1-methyl-1H-pyrazol-5-yl)ethyl)isoindolin-1-one]
22 | < 5.00 | N#Cc1cccc(-c2cc3c(cc2-c2cc(F)cc(C#N)c2)C(=O)NC3)c1 [Compound 189, 3-(6-(3-cyanophenyl)-3-oxoisoindolin-5-yl)-5-fluorobenzonitrile]
23 | < 5.00 | COc1ccc(F)c(-c2cc3c(cc2-c2cccc(C#N)c2)CNC3=O)c1 [Compound 170, 3-(6-(2-fluoro-5-methoxyphenyl)-1-oxoisoindolin-5-yl)benzonitrile]
24 | 6.20 | Cn1cc(S(=O)(=O)Nc2ccccc2-c2cc3c(cc2-c2ccc(F)cc2F)C(=O)NC3)cn1 [Compound 165, N-(2-(6-(2,4-difluorophenyl)-1-oxoisoindolin-5-yl)phenyl)-1-methyl-1H-pyrazole-4-sulfonamide]
25 | 5.02 | N#Cc1cccc(-c2cc3c(cc2-c2cc(F)ccc2C#N)C(=O)NC3)c1 [Compound 187, 2-(6-(3-cyanophenyl)-3-oxoisoindolin-5-yl)-4-fluorobenzonitrile]
26 | 6.38 | O=C1NCc2cc(CCc3ccn(C4CC4)n3)c(-c3ccc(F)cc3F)cc21 [Compound A8, 5-(2-(1-cyclopropyl-1H-pyrazol-3-yl)ethyl)-6-(2,4-difluorophenyl)isoindolin-1-one]
27 | 6.56 | Cn1nc(CCc2cc3c(cc2-c2ccc(F)cc2F)C(=O)NC3)cc1C#N [Compound A9, 3-(2-(6-(2,4-difluorophenyl)-1-oxoisoindolin-5-yl)ethyl)-1-methyl-1H-pyrazole-5-carbonitrile]
28 | 5.95 | Cn1cc(S(=O)(=O)Nc2ccccc2-c2cc3c(cc2-c2ccc(F)cc2F)C(=O)NC3)nn1 [Compound 163, N-(2-(6-(2,4-difluorophenyl)-1-oxoisoindolin-5-yl)phenyl)-1-methyl-1H-1,2,3-triazole-4-sulfonamide]
29 | < 5.00 | COc1c(F)cc(-c2cc3c(cc2-c2cccc(C#N)c2)CNC3=O)cc1F [Compound 182, 3-(6-(3,5-difluoro-4-methoxyphenyl)-1-oxoisoindolin-5-yl)benzonitrile]
30 | 6.02 | Cc1ncc(S(=O)(=O)Nc2ccccc2-c2cc3c(cc2-c2ccc(F)cc2F)C(=O)NC3)s1 [Compound 164, N-(2-(6-(2,4-difluorophenyl)-1-oxoisoindolin-5-yl)phenyl)-2-methylthiazole-5-sulfonamide]
31 | < 5.00 | COc1ccc(-c2cc3c(cc2-c2cccc(C#N)c2)CNC3=O)cc1C#N [Compound 172, 5-(6-(3-cyanophenyl)-3-oxoisoindolin-5-yl)-2-methoxybenzonitrile]
